Patent publication US20160287712A1, “FATTY ACID NIACIN CONJUGATES” (priority 2013, published 2016)
Where two headings read alike, the source gives them in different places.

Legend:
[1] = Pharmacokinetics after oral administration to rats with jugular vein and portal vein catheters; format: in vivo, Male Sprague-Dawley rats; conditions: rat
Description: Pharmacokinetic studies were conducted in male Sprague-Dawley rats, with an approximate weight of 250-300 g at dose initiation. All animals were instrumented with a jugular vein catheter (JVC) and a portal vein catheter (PVC) to facilitate blood collections. Jugular and Portal vein catheterizations were conducted at Charles River Laboratories under protocols approved by the Institutional Animal Care and Use Committee (IACUC) of Charles River Lab (Approved PO 4122010).
Animals were anaesthetized with ketamine and xylazine administered intraperitoneally and provided buprenorphine subcutaneously. The skin overlying the scapula and over the right jugular vein were shaved and skin aseptically prepared. A 1.1.5 cm cranial-caudal incision, followed by blunt dissection was performed to expose the jugular vein, which was then catheterized using either a PU or blended catheter. After fixation of the catheter, it was flushed with sterile saline to verify patency. The distal end of the catheter was then tunneled subcutaneously to the dorsal scapular region where it was exteriorized. Catheter patency was verified again. The catheter was then locked with 50% heparinized dextrose solution. The exteriorized end of the catheter was sealed with a stainless steel plug. The skin incision was then closed with wound clips.
Animals were anaesthetized with ketamine and xylazine administered intraperitoneally. A mid-line incision 1-2 cm was made in the abdominal cavity and the portal vein was detached near the liver. To prevent bleeding, the portal vein was ligated temporarily as the catheter was inserted. The cathether (3.5 Fr polyurethane tube, Access™ technologies Inc.) was inserted immediately and fixed by a purse-string suture on the portal vein. The time to reperfusion was about 1 min after intercepted blood flow. This method for insertion of catheter can avoid the occlusion of the vessel. In addition, a catheter with trumpet-shaped opening was used to prevent the catheter from slipping out of the vessel with minimizing the effect of blood flow. Another end of the catheter was passed subcutaneously to the dorsal back of the neck and the laparotomy was closed in two layers, with a 4/0 silk blade to the muscle, and a surgical clip to close the skin.
Male Sprague-Dawley rats instrumented with jugular vein catheter and portal vein catheter were separated into groups of 4. The test compound was administered by oral gavage at dose of 30 mg/kg in a vehicle consisting of Tween (specifically Tween 80), Peceol, PEG400 (at a ratio of 40:50:10) along with 0.2% tocopherol and emulsified in water, with a water to oil ratio of 66:1 (the dose concentration was 6 mg/mL and the dose volume was 5 mL/kg). Whole blood (0.3 mL) was collected at both the jugular and portal vein at the following time points: 10, 20, 40 min, 1, 1.5, 2 and 4 hours post-dose. Blood samples were placed into tubes containing sodium heparin anticoagulant. Each whole blood sample was placed on ice until sample could be centrifuged at 2200×g at 5° C.±3° C. for 10 min to isolate plasma.
The amount of the various metabolites and parent compound present in the plasma samples were then analyzed by LC/MS/MS using an Agilent 6410 Triple Quadrupole with an ESI interface. The column used was a Phenomenex Gemini C6 Phenyl 110A 50×4.6 mm, 1.8 μM. The mobile phase used was water and methanol, each containing 0.1% formic acid. Data was further analyzed by WinNolin Software. For a given test compound, the following compounds were quantitated from the collected plasma samples: 1) test compound, 2) niacin linker, 3) linker-EPA, 4) niacin and 5) nicotinuric acid.
In order to quantitate each of these compounds in plasma, standard curves in blank plasma were generated using the appropriate internal standard (the final concentration range used were 8333 ng/mL, 2083 ng/mL, 521 ng/mL, 130.2 ng/mL, 32.5 ng/mL, 8.1 ng/mL, 2.0 ng/mL and 0.5 ng/mL). […]

[2] = Compound hydrolysis and tissue distribution: test compound and metabolites in liver after oral dosing for 3.5 days; format: in vivo, Male Sprague-Dawley rats; conditions: for concentration at 4 h / Amount of Analyte: Niacin-linker Metabolite / Amount of Analyte: Nicotinuric Acid / Amount of Analyte: Linker-Fatty Acid Metabolite: male, Sprague-Dawley; for concentration at 4 h: liver homogenate, rat liver, 100 mg/kg oral gavage every 12 hours, 7 doses, 4 hours after last dose, read-out: Amount of Analyte: Intact Test Compound; for Amount of Analyte: Niacin-linker Metabolite / Amount of Analyte: Nicotinuric Acid / Amount of Analyte: Linker-Fatty Acid Metabolite: 4 h
Description: The amount of test compound and its metabolites in the liver provides information on distribution of such compounds within the rat, as well as information on stability of the test compound, such as resistance of the test compound to hydrolytic degradation. […] A test compound was administered to a single group of Male Sprague-Dawley rats. Each group contained 6 animals. […] Two additional animals were administered vehicle alone as controls. Animals were dosed every 12 hours for 3.5 days (7 doses total). Rats were fasted overnight after the PM dose on day 3 of study. On day 4 the rats were euthanized 4 hours after the last dose. Vehicle treated rats were also fasted prior to collection of tissue samples on day 4. At 4 hours after last dose, the livers were excised, rinsed and weight of each tissue recorded. Livers were snap frozen in liquid nitrogen and stored in 50 mL polypropylene conical centrifuge tubes at −80° C. Liver tissue was homogenized in PBS at a volume of 2 mL per gram of tissue. The amount of test compound and various metabolites of the test compound present in the liver homogenates were analyzed by LC/MS/MS as done in the previous example. […] In order to quantitate each of these compounds in the homogenates, standard curves in blank liver homogenates were generated using the appropriate internal standard.

[3] = male, Sprague-Dawley, in vivo, po, 30 mg/kg
[4] = male, Sprague-Dawley, in vivo, po, 30 mg/kg, Peripheral AUClast, parent compound
[5] = male, Sprague-Dawley, in vivo, po, 30 mg/kg, Peripheral Cmax, parent compound
[6] = male, Sprague-Dawley, in vivo, po, 30 mg/kg, Portal AUClast, parent compound
[7] = male, Sprague-Dawley, in vivo, po, 30 mg/kg, Portal Cmax, parent compound

SMILES	ratio of Portal AUClast of Parent compound to Portal AUClast of Niacin-linker metabolite [1, 3]	AUC(0-t) [1, 4] [ng·h/mL]	Cmax [1, 5] [ng/mL]	AUC(0-t) [1, 6] [ng·h/mL]	Cmax [1, 7] [ng/mL]	Amount of Analyte: Niacin-linker Metabolite ([2]; rat, in vivo, po, 100 mg/kg)	also measured
CC/C=C\C/C=C\C/C=C\C/C=C\C/C=C\C/C=C\CCC(=O)NCCNC(=O)c1cccnc1 [Compound I-7, N-(2-(4Z,7Z,10Z,13Z,16Z,19Z)-docosa-4,7,10,13,16,19-hexaenamidoethyl)nicotinamide, reference compound]							Cmax ([1]; male, Sprague-Dawley, jugular vein plasma, po, 30 mg/kg, 30 mg/kg oral gavage, jugular vein plasma, read-out: Peripheral Cmax, parent compound): 238 ng/mL; AUC(0-t) ([1]; male, Sprague-Dawley, jugular vein plasma, po, 30 mg/kg, 30 mg/kg oral gavage, jugular vein plasma, t=10 min to 4 hrs, read-out: Peripheral AUClast, parent compound): 353 ng·h/mL; Cmax ([1]; male, Sprague-Dawley, portal vein plasma, po, 30 mg/kg, 30 mg/kg oral gavage, portal vein plasma, read-out: Portal Cmax, parent compound): 1850 ng/mL; AUC(0-t) ([1]; male, Sprague-Dawley, portal vein plasma, po, 30 mg/kg, 30 mg/kg oral gavage, portal vein plasma, t=10 min to 4 hrs, read-out: Portal AUClast, parent compound): 1460 ng·h/mL; portal concentration of the parent compound compared to compounds I-15 and I-24 ([1]; 30 mg/kg oral gavage): lower; concentration at 4 h [2]: 6.7 ng/g
CC/C=C\C/C=C\C/C=C\C/C=C\C/C=C\CCCC(=O)NCCNC(=O)c1cccnc1 [Compound I-8, N-(2-(5Z,8Z,11Z,14Z,17Z)-eicosa-5,8,11,14,17-pentaenamidoethyl)nicotinamide, reference compound]	0.06	81	78	662	756	2351 nanograms of analyte per gram of tissue homogenate	Amount of Analyte: Nicotinuric Acid ([2]; rat, in vivo, po, 100 mg/kg): 785 nanograms of analyte per gram of tissue homogenate
CC/C=C\C/C=C\C/C=C\C/C=C\C/C=C\CCCC(=O)N1CCN(C(=O)c2cccnc2)CC1 [Compound I-13, (5Z,8Z,11Z,14Z,17Z)-1-(4-nicotinoylpiperazin-1-yl)icosa-5,8,11,14,17-pentaen-1-one]	0.83	142	80	3560	6070	2023 nanograms of analyte per gram of tissue homogenate	Amount of Analyte: Linker-Fatty Acid Metabolite ([2]; rat, in vivo, po, 100 mg/kg): 15782 nanograms of analyte per gram of tissue homogenate; Amount of Analyte: Nicotinuric Acid ([2]; rat, in vivo, po, 100 mg/kg): 15.1 nanograms of analyte per gram of tissue homogenate
CC/C=C\C/C=C\C/C=C\C/C=C\C/C=C\CCCC(=O)N(C)CCNC(=O)c1cccnc1 [Compound I-15, N-(2-((5Z,8Z,11Z,14Z,17Z)—N-methylicosa-5,8,11,14,17-pentaenamido)ethyl)nicotinamide]		767	360	5060	4520		concentration at 4 h [2]: 459 ng/g
CC/C=C\C/C=C\C/C=C\C/C=C\C/C=C\CCCC(=O)N[C@H]1CCN(C(=O)c2cccnc2)C1 [Compound I-23, (5Z,8Z,11Z,14Z,17Z)—N—((S)-1-nicotinoylpyrrolidin-3-yl)icosa-5,8,11,14,17-pentaenamide]	0.17	60	68	1440	2600	2290 nanograms of analyte per gram of tissue homogenate	
CC/C=C\C/C=C\C/C=C\C/C=C\C/C=C\CCCC(=O)N1CC[C@H](NC(=O)c2cccnc2)C1 [Compound I-24, N—((S)-1-((5Z,8Z,11Z,14Z,17Z)-icosa-5,8,11,14,17-pentaenoyl)pyrrolidin-3-yl)nicotinamide]	41	964	565	6640	5320	2826 nanograms of analyte per gram of tissue homogenate	Amount of Analyte: Linker-Fatty Acid Metabolite ([2]; rat, in vivo, po, 100 mg/kg): 77.2 nanograms of analyte per gram of tissue homogenate; amount of intact test compound present in the liver compared to other compounds of Table 9 ([2]; rat, in vivo, po, 100 mg/kg): significantly larger
CC/C=C\C/C=C\C/C=C\C/C=C\C/C=C\CCCC(=O)N[C@H]1CC[C@H](CNC(=O)c2cccnc2)CC1 [Compound I-41, N-(((1R,4R)-4-((5Z,8Z,11Z,14Z,17Z)-icosa-5,8,11,14,17-pentaenamido)cyclohexyl)methyl)nicotinamide]							Peripheral AUClast, parent compound ([1]; in vivo, po, 30 mg/kg): 218 ng·h/mL; Portal AUClast, parent compound ([1]; in vivo, po, 30 mg/kg): 2,507 hr*ng/mL; ratio of Portal AUClast of Parent compound to Portal AUClast of Niacin-linker metabolite ([1]; in vivo, po, 30 mg/kg): 1.3
